From patent US20230084927A1, “GLUCOSE UPTAKE INHIBITORS AND USES THEREOF” (METABOMED LTD., priority 2019, published 2023)
Like-named read-outs stand apart in the source and are kept apart here.

What was measured:
[1] = tested on: 2-DeoxyGlucose phosphorylation in murine SDH-WT cells; assay: 2 DG phosphorylation assay; format: cell-based; settings: Mus musculus, 0.25 h, 15 min, LC-MS
Method: IC50 of compound 145 and GluT1 inhibitor […] in a 2 DG phosphorylation assay was done using murine SDH-WT cells. The cells were treated for 15 min with the indicated compound at different concentrations in the presence of 2 DG. 2 DG phosphorylation was determined by LC-MS analysis and the inhibition IC50 was determined by Prism software.

[2] = tested on: m+3 lactate secretion (glycolysis) in SDH-KO cells; assay: Glycolysis inhibition (IC50 Lactate m+3); format: cell-based; settings: 1 h, 25 mM 13C-glucose, one hour
Method: (§1) Glycolysis Inhibition (IC50 Lactate m+3)
(§2) Cell were plated in DMEM, 25 mM Glucose, 1 mM Pyruvate, 1 mM Glutamine and 10% Dialyzed serum in 96 well plates in triplicates. The day after the medium was replaced to fresh medium with 25 mM ^13C-glucose and treated with different concentrations of the compounds as indicated. One hour later the medium was collected and the level of m+3 lactate was determined by LC-MS. The IC50 of inhibition of m+3 lactate secretion into the medium was calculated with Prism.

[3] = tested on: m+3 lactate secretion (glycolysis) in SDH-WT cells; assay: Glycolysis inhibition (IC50 Lactate m+3); format: cell-based; settings: 1 h, 25 mM 13C-glucose, one hour
Method: as §1, §2

UOK269 (SDHB-def.) RCC = assay: Cell viability in SDH-deficient/proficient isogenic pairs; format: cell-based, Human
Method: (§3) The cells were grown in DMEM F12 supplemented with 1 mM Glutamine+3% FBS were treated with different concentrations of the indicated compounds. Cell viability was determined 72 hours later by CellTiter Glue reagent (Promega), the luminescence was measured with ClarioStar reader (BMG) and the EC50s were calculated by Prism. Murine SDHB-WT/KO, HRAS transformed isogenic pair (FIG. 12A); UOK269, Human Tumor-derived SDHB-deficient RCC in their WT counterpart with re-expression of SDHB (FIG. 12B); and ACHN, RCC cells, and their SDHB-KO (SDHB CRISPRed out) isogenic cells (FIG. 12C).

[4] = tested on: UOK269-WT (re-expression of SDHB); assay: as above; format: cell-based, Human
Method: as §3

ACHN WT, RCC cells = assay: as above; format: cell-based
Method: as §3

[5] = tested on: ACHN SDHB −/− (SDHB CRISPRed out); assay: as above; format: cell-based
Method: as §3

[6] = tested on: SDH-KO, Murine HRAS-transformed, SDHB-deficient cells; assay: Toxicity assay with or without rotenone; format: cell-based; settings: Mus musculus, 72 hours
Method: (§4) Toxicity assay: Cells were growing in 96 well plates in DMEM F12 with 17 mM glucose, 0.5 mM Sodium Pyruvate, 1 mM Glutamine and 3% FBS. The cells were treated with the indicated compounds (10 different concentrations) with or without 25 nM rotenone. Viability was determined after 72 hours of treatment using CellTiter Glo reagent (Promega). EC50 was calculated using Prism software.

OV-90 (Ovarian cancer) = assay: Toxicity assay with or without rotenone; format: cell-based; settings: Homo sapiens, 72 hours
Method: as §4

[7] = tested on: KG1 (Acute Myelogenous Leukemia); assay: Toxicity assay with or without rotenone; format: cell-based; settings: 72 hours
Method: as §4

[8] = tested on: THP1 (Acute Monocytic Leukemia); assay: Toxicity assay with or without rotenone; format: cell-based; settings: Homo sapiens, THP-1, 72 hours
Method: as §4

[9] = tested on: SDH-WT, Murine HRAS-transformed cells; assay: Toxicity assay with or without rotenone; format: cell-based; settings: Mus musculus, 72 hours
Method: as §4

[10] = tested on: SDH-KO-HRAS cells (SDHB-deficient); assay: Cellular / differential toxicity assay (CellTiter-Glo, 3 days); format: cell-based, murine; settings: for EC50: Mus musculus, 72 h
Procedure, shortened: (§5)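 Isogenic SDHB-deficient (HRAS-transformed SDH-KO) and SDH-WT cells grown in DMEM-F12 with 1 mM glutamine and 3% FBS, plated with compound (10-point dilution from 10 uM to 0.0065 uM or lower) for 3 days at 37 °C, 5% CO2. Viability by CellTiter-Glo luminescence; EC50 calculated.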

SDH-WT cells = assay: as above; format: cell-based, murine; settings: for EC50: Mus musculus, 72 h
Procedure, shortened: as §5

[11] = Homo sapiens, tumor-derived, 72 hours
[12] = Homo sapiens, cancer cells, 72 hours
[13] = with 25 nM rotenone, read-out: EC50 (nM) with Rotenone
[14] = without rotenone, read-out: EC50

IC50 [1]: 9.7 nM
IC50 [2]: 6.1 nM
IC50 [3]: 1.7 nM
EC50 (ACHN WT, RCC cells; [12]): 13800 nM
EC50 [5, 12]: 8.4 nM
Compound: CC1(C)Cc2nc3sc4c(NCCc5ccc6[nH]cnc6c5)ncnc4c3cc2CO1 [Compound 145]
Ratio BAY-876/COMP 145 (UOK269 (SDHB-def.) RCC): 8.8
EC50 (UOK269 (SDHB-def.) RCC; [11]): 1.7 nM
Ratio BAY-876/COMP 145 [4]: 2.9
EC50 [4, 11]: 1830 nM
Ratio BAY-876/COMP 145 (ACHN WT, RCC cells): 1.7
Ratio BAY-876/COMP 145 [5]: 30
EC50 [6, 13]: 3 nM
EC50 [6, 14]: 3 nM
EC50 (OV-90 (Ovarian cancer); OV-90, with 25 nM rotenone, read-out: EC50 (nM) with Rotenone): 15 nM
EC50 (OV-90 (Ovarian cancer); OV-90, without rotenone, read-out: EC50): 825 nM
EC50 ([7]; KG1, with 25 nM rotenone, read-out: EC50 (nM) with Rotenone): 16 nM
EC50 ([7]; KG1, without rotenone, read-out: EC50): 3200 nM
EC50 ([8]; THP1, with 25 nM rotenone, read-out: EC50 (nM) with Rotenone): 16 nM
EC50 ([8]; THP1, without rotenone, read-out: EC50): 1100 nM
EC50 [9, 13]: 3 nM
EC50 [9, 14]: 210 nM
Ratio BAY-876/COMP 145 ([10]; Murine SDH-KO): 0.8
EC50 ([10]; Murine SDH-KO, transformed, 72 hours, Example 8, read-out: EC50): 0.0012 µM
EC50 ([10]; SDH-KO cells, 72 hours, Example 7, read-out: EC50 Tox): 0.0018 µM
EC50 ([10]; toxicity, SDH-KO cells, 3 days, CellTiter-Glo, read-out: EC50 (uM) SDH-KO-HTAS-C17): < 1 µM
differential effect between SDH-WT and KO cells (EC50 Tox) ([10]; cell viability, Example 7): around 80 folds
Ratio BAY-876/COMP 145 (SDH-WT cells; Murine SDH-WT): 0.4
EC50 (SDH-WT cells; Murine SDH-WT, transformed, 72 hours, Example 8, read-out: EC50): 0.34 µM
EC50 (SDH-WT cells; SDH-WT cells, 72 hours, Example 7, read-out: EC50 Tox): 0.139 µM
EC50 (SDH-WT cells; toxicity, SDH-WT cells, 3 days, CellTiter-Glo, read-out: EC50 (uM) SDH-WT): < 1 µM
